Assay results published in patent publication US8030498B2, “Benzoylpyrazole compounds and herbicides containing them” (Ishihara Sangyo Kaisha, Ltd., priority 2005, dated 2011).

How the values were obtained:
barnyardgrass = test: Test Example 2: soil application on the day after sowing, growth inhibition rate, barnyardgrass; format: in vivo, Echinochloa crus-galli L.; details: 250 g/ha active ingredient, observed on 19th to 24th day
In short: (§1)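 Upland soil pots sown with crop and weed seeds; next day wettable powder or emulsifiable concentrate at prescribed active-ingredient amounts, diluted to 500 L/ha water, sprayed onto soil. Growth inhibition scored visually 19–24 days later, 0 (as untreated) to 100% (complete kill).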

wheat = test: Test Example 2: soil application on the day after sowing, growth inhibition rate, wheat; format: in vivo, Triticum spp.; details: 250 g/ha active ingredient, observed on 19th to 24th day
In short: as §1

redroot pigweed = test: Test Example 2: soil application on the day after sowing, growth inhibition rate, redroot pigweed; format: in vivo, Amaranthus retroflexus L.; details: 250 g/ha active ingredient, observed on 19th to 24th day
In short: as §1

[1] = tested on: soybean (Glycine max Merr.); test: Test Example 1: foliar treatment, growth inhibition rate, soybean; format: in vivo; details: 31 g/ha active ingredient, visually observed 17th to 23rd day after application
In short: (§2)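 Visual scoring of growth inhibition, 0% (untreated) to 100% (complete kill), on days 17–23 following post-emergence spray of formulated compound in water (500 L/ha, 0.1 vol % spreader); plants treated at set leaf stages, e.g. corn 2.0–3.5, wheat 1.7–3.4.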

[2] = tested on: redroot pigweed (Amaranthus retroflexus L.); test: Test Example 1: foliar treatment, growth inhibition rate, redroot pigweed; format: in vivo; details: 31 g/ha active ingredient, visually observed 17th to 23rd day after application
In short: as §2

rice = test: Test Example 2: soil application on the day after sowing, growth inhibition rate, rice; format: in vivo, Oryza sativa L.; details: 250 g/ha active ingredient, observed on 19th to 24th day
In short: as §1

rice (Oryza sativa L.) = test: Test Example 1: foliar treatment, growth inhibition rate, rice; format: in vivo; details: 31 g/ha active ingredient, visually observed 17th to 23rd day after application
In short: (§3)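 Potted upland soil; compounds as wettable powders or emulsifiable concentrates diluted in water at 500 L/ha plus 0.1 vol % spreader, foliar-sprayed at defined leaf stages (rice 1.0–2.5, wheat 1.7–3.4, corn 2.0–3.5, greenfoxtail 1.0–3.0). Growth inhibition (0–100%) scored visually 17–23 days after application.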

[3] = tested on: barnyardgrass (Echinochloa crus-galli L.); test: Test Example 1: foliar treatment, growth inhibition rate, barnyardgrass; format: in vivo; details: 31 g/ha active ingredient, visually observed 17th to 23rd day after application
In short: (§4)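 Seeds were sown in upland field soil in pots. At the target leaf stage (corn 2.0–3.5; greenfoxtail 1.0–3.0; rice 1.0–2.5; wheat 1.7–3.4), the formulated compound, diluted at a water volume of 500 L/ha with 0.1 vol % spreader, was applied by small sprayer. Plants were rated by eye on days 17–23.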

velvetleaf = test: Test Example 2: soil application on the day after sowing, growth inhibition rate, velvetleaf; format: in vivo, Abutilon theophrasti MEDIC.; details: 250 g/ha active ingredient, observed on 19th to 24th day
In short: as §1

[4] = tested on: greenfoxtail (Setaria viridis L.); test: Test Example 1: foliar treatment, growth inhibition rate, greenfoxtail; format: in vivo; details: 31 g/ha active ingredient, visually observed 17th to 23rd day after application
In short: as §3

soybean = test: Test Example 2: soil application on the day after sowing, growth inhibition rate, soybean; format: in vivo, Glycine max Merr.; details: 250 g/ha active ingredient, observed on 19th to 24th day
In short: as §1

[5] = tested on: prickly sida (Sida spinosa L.); test: Test Example 1: foliar treatment, growth inhibition rate, prickly sida; format: in vivo; details: 31 g/ha active ingredient, visually observed 17th to 23rd day after application
In short: as §2

prickly sida = test: Test Example 2: soil application on the day after sowing, growth inhibition rate, prickly sida; format: in vivo, Sida spinosa L.; details: 250 g/ha active ingredient, observed on 19th to 24th day
In short: as §1

wheat (Triticum spp.) = test: Test Example 1: foliar treatment, growth inhibition rate, wheat; format: in vivo; details: 31 g/ha active ingredient, visually observed 17th to 23rd day after application
In short: as §3

greenfoxtail = test: Test Example 2: soil application on the day after sowing, growth inhibition rate, greenfoxtail; format: in vivo, Setaria viridis L.; details: 250 g/ha active ingredient, observed on 19th to 24th day
In short: as §1

[6] = tested on: crabgrass (Digitaria sanguinalis L.); test: Test Example 1: foliar treatment, growth inhibition rate, crabgrass; format: in vivo; details: 31 g/ha active ingredient, visually observed 17th to 23rd day after application
In short: as §2

[7] = tested on: velvetleaf (Abutilon theophrasti MEDIC.); test: Test Example 1: foliar treatment, growth inhibition rate, velvetleaf; format: in vivo; details: 31 g/ha active ingredient, visually observed 17th to 23rd day after application
In short: as §4

corn = test: Test Example 2: soil application on the day after sowing, growth inhibition rate, corn; format: in vivo, Zea mays L.; details: 250 g/ha active ingredient, observed on 19th to 24th day
In short: as §1

corn (Zea mays L.) = test: Test Example 1: foliar treatment, growth inhibition rate, corn; format: in vivo; details: 31 g/ha active ingredient, visually observed 17th to 23rd day after application
In short: as §3

crabgrass = test: Test Example 2: soil application on the day after sowing, growth inhibition rate, crabgrass; format: in vivo, Digitaria sanguinalis L.; details: 250 g/ha active ingredient, observed on 19th to 24th day
In short: as §1

Structure (SMILES)	Growth inhibition rate (%) Barnyardgrass (barnyardgrass) [%]	Growth inhibition rate (%) Wheat (wheat) [%]	Growth inhibition rate (%) redroot pigweed (redroot pigweed) [%]	Growth inhibition rate (%) Soybean [1] [%]	Growth inhibition rate (%) redroot pigweed [2] [%]	Growth inhibition rate (%) Rice (rice) [%]	Growth inhibition rate (%) Rice (rice (Oryza sativa L.)) [%]	Growth inhibition rate (%) Barnyardgrass [3] [%]	Growth inhibition rate (%) Velvetleaf (velvetleaf) [%]	Growth inhibition rate (%) Greenfoxtail [4] [%]	Growth inhibition rate (%) Soybean (soybean) [%]	Growth inhibition rate (%) Prickly sida [5] [%]	Growth inhibition rate (%) Prickly sida (prickly sida) [%]	Growth inhibition rate (%) Wheat (wheat (Triticum spp.)) [%]	Growth inhibition rate (%) Greenfoxtail (greenfoxtail) [%]	Growth inhibition rate (%) Crabgrass [6] [%]	Growth inhibition rate (%) Velvetleaf [7] [%]	Growth inhibition rate (%) Corn (corn) [%]	Growth inhibition rate (%) Corn (corn (Zea mays L.)) [%]	Growth inhibition rate (%) Crabgrass (crabgrass) [%]	other results
CCOC(=O)c1c(S(C)(=O)=O)ccc(C(=O)c2cnn(CC)c2OC(=O)SCC)c1Cl [compound 59]	100	10	100	70	80	80	50	90	100	70	10	80	98	10	100	80	75	0	0	100	
CCCOc1c(S(C)(=O)=O)ccc(C(=O)c2cnn(C)c2OC(=O)SCC)c1C [compound 66]	80	0	95	98	95	90	60	95	40	100	0	75	90	10	40	98	95	0	0	90	
CCOC(=O)COc1c(S(C)(=O)=O)ccc(C(=O)c2cnn(C)c2OC(=O)SCC)c1C [compound 65]	0	0	20	10	30	0	0	20	0	10	0	30	0	0	10	10	50	0	0	10	
CCSC(=O)Oc1c(C(=O)c2ccc(S(C)(=O)=O)c(C(=O)OC)c2C)cnn1C [Compound No. 1, 5-(ethylthio)carbonyloxy-1-methylpyrazol-4-yl 3-(methoxycarbonyl)-2-methyl-4-(methylsulfonyl)phenyl ketone]					100							70									inhibition at 250 g/ha (barnyardgrass; Echinochloa crus-galli): 100%; inhibition at 250 g/ha (wheat; Triticum aestivum): 10%; inhibition at 250 g/ha (redroot pigweed; Amaranthus retroflexus): 100%; inhibition at 250 g/ha (rice; Oryza sativa): 95%; pest or weed control at 31 g/ha (rice (Oryza sativa L.); Oryza sativa): 80%; pest or weed control at 31 g/ha ([3]; Echinochloa crus-galli): 90%; inhibition at 250 g/ha (velvetleaf; Abutilon theophrasti): 60%; pest or weed control at 31 g/ha ([4]; Setaria viridis): 100%; inhibition at 250 g/ha (soybean; Glycine max): 75%; inhibition at 250 g/ha (prickly sida; Sida spinosa): 60%; pest or weed control at 31 g/ha (wheat (Triticum spp.); Triticum): 0%; inhibition at 250 g/ha (greenfoxtail; Setaria viridis): 100%; pest or weed control at 31 g/ha ([6]; Digitaria sanguinalis): 80%; pest or weed control at 31 g/ha ([7]; Abutilon theophrasti): 100%; inhibition at 250 g/ha (corn; Zea mays): 0%; pest or weed control at 31 g/ha (corn (Zea mays L.); Zea mays): 10%; inhibition at 250 g/ha (crabgrass; Digitaria sanguinalis): 100%
CCSC(=O)Oc1c(C(=O)c2ccc(S(C)(=O)=O)c(CC(=O)OC)c2C)cnn1C [compound 64]	90	0	80		80	70	70	100	30	65	0	60	60	0	50		85	0	0	95	
CCOc1c(S(C)(=O)=O)ccc(C(=O)c2cnn(C)c2OC(=O)SCC)c1C [compound 36]	100	0	100		100	80	70	100	50	100	30	100	60	50	100	98	100	0	10	100	
